# “Also recorded” adds a separate entry of the source.
# Legend:
# [1] = relative to start of dosing; GDC-0941 100 mg/kg PO QD, Compound A 30 mg/kg IP QD; five days per week for 3 cycles
# Description: Percent body weight change was determined relative to the start of dosing, and the mean change±SD was plotted. All treatments were dosed five days per week for 3 cycles.
# [2] = system: Jeko1 or Mino lymphoma cells; assay: Apoptosis by flow cytometry, statements for the cell lines together; format: cell-based, human; details: 4 days; for apoptosis / percentage of apoptotic cells: Jeko1 or Mino, relative to control cells (DMSO), Compound A or B 2-3 μM, GDC-0941 0.075-2 μM, CAL-101 2 μM; for cellular apoptosis: Compound A or B plus a PI3Ki, lymphoma cells
# Description: Jeko1 (FIG. 4A and FIG. 4B) or Mino (FIG. 4C) lymphoma cells were exposed to drug for 4 days, and apoptosis was assessed by flow cytometry by measuring Annexin V binding and cellular permeability to propidium iodide. The relative fraction of cells that were live, in early apoptosis, in late apoptosis, or dead was then estimated. The cells were treated with DMSO, Compound A or B (2-3 μM), GDC-0941 (0.075-2 μM), or the combination of Compound A or B (2-3 μM) with GDC-0941 (0.075-2 μM) on the induction of apoptosis. Alternatively, cells were treated with DMSO, Compound A or B (2 μM), CAL-101 (2 μM), or the combination of Compound A or B (2 μM) with CAL-101 (2 μM) before measuring induction of apoptosis.
# [3] = system: Mino, Jeko1, Granta-519, U2932 and SUDHL16 cells; assay: MTS cell viability, dose-matrix combination of HDAC6 inhibitor and PI3K inhibitor (Fa-CI, Chou-Talalay); format: cell-based, human; details: HDAC6 inhibitor in combination with a PI3K inhibitor (GDC-0941 or GS-1101/CAL-101), 48 hr
# Description: Human lymphoma cell lines were selected that represented the most common subtypes of NHL. For Mantle Cell Lymphoma (MCL) Mino, Jeko1, and Granta-519 cells were utilized, while U2932 and SUDHL16 cells represented the activated B cell (ABC) and germinal center (GC) subtypes of diffuse large B cell lymphoma (DLBCL), respectively. Briefly, cells were seeded in 384-well plates and treated in quadruplicate in a dose-matrix format with an HDAC6 inhibitor (Compound A, Compound B, or Compound C) in combination with a PI3K inhibitor (GDC-0941 or GS-1101/CAL-101). After incubating these cells for 48 hr, total cell viability was assessed via an MTS assay (Aqueous One, Promega). The fraction affected (Fa) was subsequently determined for each dose combination and the combination index (CI) was assessed using the method of Chou-Talay.
# [4] = system: Jeko1, Mino or Granta-519 lymphoma cells; assay: Cell cycle distribution by flow cytometry, statements for all cell lines together; format: cell-based, human; details: Compound A or B 2 μM and/or PI3K inhibitor, 4 days
# Description: The relative fraction of cells in each stage of the cell cycle (G0/G1, S, and G2/M), as well as the fraction of dead cells (Sub G1) was then estimated. Cells were treated with DMSO, Compound A or B (2 μM), GDC-0941 (0.075-0.5 μM), or the combination of Compound A or B (2 μM) with GDC-0941 (0.075-0.5 μM) on cell cycle inhibition. Alternatively, cells were treated with DMSO, Compound A or B (2 μM), CAL-101 (1-2 μM), or the combination of Compound A or B (2 μM) with CAL-101 (1-2 μM) before measuring effects on cell cycle inhibition.
smiles,measurement,setting,value
"CS(=O)(=O)N1CCN(Cc2cc3nc(-c4cccc5[nH]ncc45)nc(N4CCOCC4)c3s2)CC1 [GDC-0941, 2-(1H-indazol-4-yl)-6-(4-methanesulfonyl-piperazin-1-ylmehtyl)-4-morpholin-4-yl-thienol[3,2-d]pyrimidine]",body weight change,[1],complete recovery after minimal body weight loss; also recorded: low level body weight loss was recovered by the end of the treatment period
same,apoptosis / percentage of apoptotic cells,[2],did not result in increased cell death
"O=C(CCCCCCNC(=O)c1cnc(N(c2ccccc2)c2ccccc2)nc1)NO [Compound A, 2-(diphenylamino)-N-(7-(hydroxyamino)-7-oxoheptyl) pyrimidine-5-carboxamide]",synergy in decreasing lymphoma cell viability,[3],synergistic decreases in lymphoma cell viability
same,cellular apoptosis,[2],synergistic increases in cellular apoptosis
same,apoptosis / percentage of apoptotic cells,[2],small increase in apoptosis relative to control cells
same,cell cycle progression,[4],decreased cell cycle progression
"O=C(CCCCCCNC(=O)c1cnc(N(c2ccccc2)c2ccccc2Cl)nc1)NO [Compound B, 2-((2-chlorophenyl)(phenyl)amino)-N-(7-(hydroxyamino)-7-oxoheptyl)pyrimidine-5-carboxamide]",synergy in decreasing lymphoma cell viability,[3],synergistic decreases in lymphoma cell viability
same,cellular apoptosis,[2],synergistic increases in cellular apoptosis
same,apoptosis / percentage of apoptotic cells,[2],small increase in apoptosis relative to control cells
same,cell cycle progression,[4],decreased cell cycle progression
"O=C(NO)c1cnc(NC2(c3cccc(F)c3)CCCCC2)nc1 [Compound C, 2-((1-(3-fluorophenyl)cyclohexyl)amino)-N-hydroxypyrimidine-5-carboxamide]",synergy in decreasing lymphoma cell viability,[3],synergistic decreases in lymphoma cell viability

# Reference: US20150105383A1, “HDAC Inhibitors, Alone Or In Combination With PI3K Inhibitors, For Treating Non-Hodgkin's Lymphoma” (Acetylon Pharmaceuticals, Inc., priority 2013, published 2015)
